For one test, the target named is T1, mu opiate receptor (Rattus norvegicus, UniProt P33535).
T1 construct: from tissue; host or cells: rat brain membranes/homogenate
In words: Inhibition of [3H]DAMGO binding to the mu opiate receptor in rat brain homogenates. More on the design: Mean: unit not given beside the values. The following applies: 0.08 mg of compound per milliliter, 7 nM 3H-labeled DAMGO, rat brain membranes; for % Bound: [3H]DAMGO bound; for Mean: mean bound radioactivity of [3H]DAMGO; for Minus NSB*: mean minus non-specific binding; for % Inhibition: percent inhibition of DAMGO binding. As to the method:
The previously prepared [3,5,7]-1H-imidazo[1,5-a]-imidazol-2(3H)-one library of individual compounds was screened for the ability to inhibit the binding of [^3H] [D-Ala^2,MePhe^4,Gly^5-ol]enkephalin (DAMGO) that is known to bind specifically to the mu opiate receptor present in rat brain homogenates following literature procedures. [Dooley et al., Science, 266:2019(1994); U.S. Pat. No. 5,763,193.]
Preparation of rat brain membranes and the receptor binding assay were carried out as described in Dooley et al., Life Sci., 52:1509(1993). Each tube in the screening assay contained 0.08 mg of compound mixture per milliliter, 0.5 mL of membrane suspension (0.1 mg of protein), 7 nM ^3H-labeled DAMGO [specific activity 36 Ci/mmol, obtained from the National Institute on Drug Abuse (NIDA) repository through Chiron Mimotopes PeptideSystems (San Diego, Calif.) and […] of peptide mixture in 50 mM Tris-HCl buffer (pH 7.4). The final volume was 0.65 mL. The results of these screenings are shown in the table, below, wherein the “R” groups are as discussed for Example 1. The results are reported as percent inhibition of DAMGO binding.

Another test concerns the target T2, kappa opiate receptor (Cavia porcellus, UniProt P41144).
T2 construct: guinea pig cortices and cerebella were homogenized in 40 mL of Buffer A; from tissue; host or cells: guinea pig cortices and cerebella, crude membrane suspension
The experiment in a line: Inhibition of tritiated U69,593 binding to the kappa opiate receptor in guinea pig brain homogenates. The arrangement: Mean: unit not given beside the values. The following applies: 3 nm tritiated U69,593, guinea pig brain membranes; for % Bound: [3H]U69,593 bound; for % Inhibition: inhibition of [3H]U69,593 binding; for Mean: mean bound radioactivity of [3H]U69,593, 2.5 hours 25° C.; for Minus NSB: mean minus non-specific binding. The method, then: The above-prepared library of individual compounds was screened for the ability to inhibit the binding of tritiated Compound U69,593 that is known to bind specifically to the kappa opiate receptor present in guinea pig brain homogenates following literature procedures. [Dooley et al., J. Biol. Chem., 273(30) 18848-18856 (1998)]
Briefly, guinea pig cortices and cerebella were homogenized in 40 mL of Buffer A [50 mM Tris-HCl, pH 7.4] at 4° C. Homogenates were centrifuged [Beckman® J2-HC, 35, 300×g] for 10 minutes. The pellets were resuspended in fresh buffer and incubated at 37° C. for 40 minutes. Following incubation, the suspensions were centrifuged as before, the resulting pellets resuspended in 100 volumes of Tris buffer, and the suspensions combined. Membrane suspensions were prepared and used on the same day. Protein content of the crude homogenates was determined by the method of Bradford, Anal. Biochem., 72:248-252 (1976).
Each assay tube contained 0.5 mL of membrane suspension, 3 nm of tritiated Compound U69,593 [(5a,7a,8b)-(−)-N-methyl-N-(7-(1-pyrrolidinyl)-1-oxaspiro(4,5)dec-8-yl)-benzeneacetamide; Lahti et al., European J. Pharmacol., 109:281-284(199-85)] in a total volume of 0.65 mL. Assay tubes were incubated for 2.5 hours a 25° C. The assay was then filtered through GF-B filters on a Tomec™ harvester (Orange, Conn.). The filters were subsequently washed with 6 mL of 50 mM Tris-HC1, pH 7.4 at 4° C. Bound radioactivity was counted on a Wallace™ Beta-plate Liquid Scintillation Counter (Piscataway, N.J.). Unlabeled U50, 488 [(trans-(dl)-3,4-dichloro-N-methyl-N-[2-(1-pyrrolidinyl)cyclohexyl]-benzeneacetamide) methane sulfonate hydrate; Lahti et al., Life Sci., 31:2257-xx(1982) and Von Voightlander et al., J. Pharmacol. Exp. Ther., 224:7 (1983)] was used as a competitive inhibitor to generate a standard curve and determine nonspecific binding. The results of these assays are shown in the table, below, wherein the “R” groups are as discussed for Example 1.

T1 sequence (P33535 whole entry): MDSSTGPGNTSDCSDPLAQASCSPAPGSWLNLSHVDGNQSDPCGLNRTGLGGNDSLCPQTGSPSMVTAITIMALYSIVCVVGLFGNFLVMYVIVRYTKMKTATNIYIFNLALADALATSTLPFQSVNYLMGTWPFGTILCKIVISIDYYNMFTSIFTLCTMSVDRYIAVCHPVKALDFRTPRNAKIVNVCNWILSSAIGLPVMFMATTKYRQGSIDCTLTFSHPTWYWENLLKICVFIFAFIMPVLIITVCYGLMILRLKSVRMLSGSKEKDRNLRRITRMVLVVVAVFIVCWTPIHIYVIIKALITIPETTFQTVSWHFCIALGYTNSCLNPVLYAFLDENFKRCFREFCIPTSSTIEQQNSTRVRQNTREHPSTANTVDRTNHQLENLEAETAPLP
T2 sequence (P41144 whole entry): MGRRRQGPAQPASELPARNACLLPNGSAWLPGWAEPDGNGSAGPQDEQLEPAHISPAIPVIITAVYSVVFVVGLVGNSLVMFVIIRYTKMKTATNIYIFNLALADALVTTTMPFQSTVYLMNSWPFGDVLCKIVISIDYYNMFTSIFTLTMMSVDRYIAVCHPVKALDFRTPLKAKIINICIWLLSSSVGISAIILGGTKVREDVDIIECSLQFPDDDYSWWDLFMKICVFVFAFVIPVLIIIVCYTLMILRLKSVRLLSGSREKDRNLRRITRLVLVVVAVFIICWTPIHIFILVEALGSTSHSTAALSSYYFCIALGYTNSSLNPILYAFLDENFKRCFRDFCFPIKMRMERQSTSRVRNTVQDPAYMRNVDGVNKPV

For the molecule `Cc1nc(Cc2ccccc2)c2n1C(C(C)C)C(=O)N2` (racemic) [Pool 63], on mu opiate receptor, the “% Bound” value was found to be 57%; the Mean stood at 854.35; the “Minus NSB*” value came out at 546.35; the % Inhibition (as a rule, the drop in the measured response relative to a control, in per cent) is on record as 43%. Moreover, at kappa opiate receptor, the “% Bound” value worked out at 84.913%, the “% Inhibition” value came to 15.087%, the Mean turned out to be 1786.7 and the “Minus NSB” value is 879.70.
In the case of `Cc1nc(Cc2ccc(O)cc2)c2n1C(C(C)C)C(=O)N2` (racemic) [Pool 64], at mu opiate receptor, the “% Bound” value is 42%, the Mean was determined as 710.9, the “Minus NSB*” value is given as 402.90 and the “% Inhibition” value was 58%. Moreover, at kappa opiate receptor, the “% Bound” value was determined as 61.631%, the “% Inhibition” value came to 38.369%, the Mean was found to be 1545.5 and the “Minus NSB” value is recorded as 638.50.
In the case of `CC(C)c1nc(C2(c3ccccc3)CC2)n2c1NC(=O)C2C(C)C` (racemic) [Pool 67], at mu opiate receptor, the “% Bound” value is on record as 55%, the Mean is 830, the “Minus NSB*” value turned out to be 522.00 and the “% Inhibition” value worked out at 45%. For the same molecule, on kappa opiate receptor, the “% Bound” value was determined as 84.662%, the “% Inhibition” value came out at 15.338%, the Mean came to 1784.1 and the “Minus NSB” value came out at 877.10.
Take `Cc1cccc(Cc2nc(C(C)C)c3n2C(C(C)C)C(=O)N3)c1` (racemic) [Pool 70]: on mu opiate receptor, the “% Bound” value came to 68%, the Mean was determined as 954.15, the “Minus NSB*” value is 646.15 and the “% Inhibition” value turned out to be 32%. For the same molecule, at kappa opiate receptor, the “% Bound” value is listed as 107.389%, the “% Inhibition” value is −7.389%, the Mean worked out at 2019.55 and the “Minus NSB” value stood at 1112.55.
As for `CC(C)c1nc(Cc2cccc(F)c2)n2c1NC(=O)C2C(C)C` (racemic) [Pool 71], on mu opiate receptor, the “% Bound” value is 57%, the Mean is 853.7, the “Minus NSB*” value was 545.70 and the “% Inhibition” value is 43%. Further, on kappa opiate receptor, the “% Bound” value came to 61.245%, the “% Inhibition” value was 38.755%, the Mean amounted to 1541.5 and the “Minus NSB” value is on record as 634.50.
Regarding `CC(C)c1nc(Cc2cccc(Br)c2)n2c1NC(=O)C2C(C)C` (racemic) [Pool 72], at mu opiate receptor, the “% Bound” value was 27%, the Mean was found to be 563, the “Minus NSB*” value was 255.00 and the “% Inhibition” value stood at 73%. Moreover, at kappa opiate receptor, the “% Bound” value is reported as 65.748%, the “% Inhibition” value is given as 34.252%, the Mean is listed as 1588.15 and the “Minus NSB” value was determined as 681.15.
`CC(C)c1nc(Cc2cccc(C(F)(F)F)c2)n2c1NC(=O)C2C(C)C` (racemic) [Pool 73]: at mu opiate receptor, the “% Bound” value stood at 69%, the Mean is given as 967.25, the “Minus NSB*” value was determined as 659.25 and the “% Inhibition” value was 31%. Besides, at kappa opiate receptor, the “% Bound” value is on record as 78.205%, the “% Inhibition” value is listed as 21.795%, the Mean was found to be 1717.2 and the “Minus NSB” value is 810.20.
`Cc1ccc(Cc2nc(C(C)C)c3n2C(C(C)C)C(=O)N3)cc1` (racemic) [Pool 74]: on mu opiate receptor, the “% Bound” value was found to be 58%, the Mean was determined as 858.65, the “Minus NSB*” value was determined as 550.65 and the “% Inhibition” value is 42%. Besides, on kappa opiate receptor, the “% Bound” value worked out at 48.287%, the “% Inhibition” value was 51.713%, the Mean is 1407.25 and the “Minus NSB” value is listed as 500.25.
As to `CC(C)c1nc(Cc2ccc(F)cc2)n2c1NC(=O)C2C(C)C` (racemic) [Pool 75], on mu opiate receptor, the “% Bound” value came to 47%, the Mean was determined as 758.2, the “Minus NSB*” value stood at 450.20 and the “% Inhibition” value is recorded as 53%. Besides, at kappa opiate receptor, the “% Bound” value is 71.134%, the “% Inhibition” value is given as 28.866%, the Mean was 1643.95 and the “Minus NSB” value was found to be 736.95.
For `COc1cccc(Cc2nc(C(C)C)c3n2C(C(C)C)C(=O)N3)c1` (racemic) [Pool 76], on mu opiate receptor, the “% Bound” value was 57%, the Mean was determined as 854, the “Minus NSB*” value was determined as 546.00 and the “% Inhibition” value turned out to be 43%. At kappa opiate receptor, the “% Bound” value is 91.902%, the “% Inhibition” value is listed as 8.098%, the Mean worked out at 1859.1 and the “Minus NSB” value turned out to be 952.10.
For `CC(C)c1nc(Cc2ccc(Br)cc2)n2c1NC(=O)C2C(C)C` (racemic) [Pool 77], on mu opiate receptor, the “% Bound” value was found to be 39%, the Mean was determined as 682.95, the “Minus NSB*” value stood at 374.95 and the “% Inhibition” value stood at 61%. For the same molecule, on kappa opiate receptor, the “% Bound” value turned out to be 73.658%, the “% Inhibition” value was 26.342%, the Mean is reported as 1670.1 and the “Minus NSB” value is given as 763.10.
Regarding `COc1ccc(Cc2nc(C(C)C)c3n2C(C(C)C)C(=O)N3)cc1` (racemic) [Pool 78], on mu opiate receptor, the “% Bound” value is reported as 49%, the Mean was 775.2, the “Minus NSB*” value was found to be 467.20 and the “% Inhibition” value amounted to 51%. Besides, at kappa opiate receptor, the “% Bound” value was determined as 87.360%, the “% Inhibition” value worked out at 12.640%, the Mean is recorded as 1812.05 and the “Minus NSB” value came out at 905.05.
`CCOc1ccc(Cc2nc(C(C)C)c3n2C(C(C)C)C(=O)N3)cc1` (racemic) [Pool 79]: at mu opiate receptor, the “% Bound” value is 65%, the Mean is recorded as 929.1, the “Minus NSB*” value is recorded as 621.10 and the “% Inhibition” value stood at 35%. Also, on kappa opiate receptor, the “% Bound” value is recorded as 90.338%, the “% Inhibition” value was 9.662%, the Mean is 1842.9 and the “Minus NSB” value is 935.90.
With `CC(C)c1nc(Cc2ccc(Cl)c(Cl)c2)n2c1NC(=O)C2C(C)C` (racemic) [Pool 81], on mu opiate receptor, the “% Bound” value worked out at 71%, the Mean was determined as 988.3, the “Minus NSB*” value is on record as 680.30 and the “% Inhibition” value was found to be 29%. At kappa opiate receptor, the “% Bound” value amounted to 89.223%, the “% Inhibition” value is reported as 10.777%, the Mean stood at 1831.35 and the “Minus NSB” value came out at 924.35.
Regarding `CC(C)c1nc(Cc2cc(C(F)(F)F)cc(C(F)(F)F)c2)n2c1NC(=O)C2C(C)C` (racemic) [Pool 82], on mu opiate receptor, the “% Bound” value was determined as 63%, the Mean turned out to be 911.65, the “Minus NSB*” value is on record as 603.65 and the “% Inhibition” value came out at 37%. In addition, at kappa opiate receptor, the “% Bound” value was 70.589%, the “% Inhibition” value is recorded as 29.411%, the Mean stood at 1638.3 and the “Minus NSB” value came to 731.30.
In the case of `CC(C)c1nc(Cc2ccc(-c3ccccc3)cc2)n2c1NC(=O)C2C(C)C` (racemic) [Pool 84], on mu opiate receptor, the “% Bound” value was determined as 57%, the Mean was determined as 850.4, the “Minus NSB*” value is recorded as 542.40 and the “% Inhibition” value came out at 43%. For the same molecule, on kappa opiate receptor, the “% Bound” value is 69.624%, the “% Inhibition” value was 30.376%, the Mean amounted to 1628.3 and the “Minus NSB” value turned out to be 721.30.
